{"source": "paper PMC9813109", "about": "“Phase I dose-escalation study of milademetan in patients with relapsed or refractory acute myeloid leukemia” (International Journal of Hematology, 2022)", "key": {"[1]": {"test": "Plasma pharmacokinetics (validated HPLC/MS, noncompartmental analysis)", "type": "in vivo, human", "settings": "for Cmax / AUC(0-t) / Tmax / half-life / AUC(0-inf): human, plasma, oral", "description": "Milademetan concentrations were determined using a validated HPLC/MS method. The lower limit of quantification was 0.500 ng/mL. Noncompartmental analysis was used to calculate the PK parameters from milademetan plasma concentrations. In addition, the Phoenix WinNonlin 8.1 software (Certara, Princeton, NJ, USA) was used for PK analysis. In addition to descriptive statistics, the geometric mean and geometric coefficient of variation were used to describe the PK parameters. All analyses were conducted using SAS® software (version 9.4; SAS Institute Inc., Cary, NC, USA). The time courses of mean plasma milademetan concentrations on days 1 and 14 of cycle 1 (linear scale) in the QD 14/28-day schedule were used for pharmacokinetic analysis. The best response was measured as CR, CRh, CRi, or PR. For efficacy analysis, a waterfall plot of the best percent change from baseline blast count in bone marrow aspirate on the QD 14/28-day schedule was drawn to assess the blast count reduction. In addition, line plots of individual serum MIC-1 levels were drawn in the QD 14/28-day schedule for the pharmacodynamics analysis set."}, "[2]": {"test_system": "macrophage inhibitory cytokine-1 (MIC-1) serum levels", "test": "Serum MIC-1 (GDF-15) ELISA, pharmacodynamic biomarker", "type": "in vivo, human", "description": "To investigate biomarkers that could be potentially linked to the milademetan mechanism of action, blood, bone marrow, and serum were collected. TP53 tumor genotyping was done using bone marrow and blood samples collected before milademetan administration and at the end of treatment. TP53 genomic status was determined using a targeted next-generation sequencing following the reference human genome sequence (hg19). QIAamp® DSP FFPE Kit (Qiagen, Hilden, Germany) was used to extract DNA. Quantified DNA samples were processed by polymerase chain reaction (PCR) amplification using custom primer sets of all 11 TP53 exons. Libraries were prepared from purified PCR pools using Illumina TruSeq kits™ (Illumina, San Diego, CA, USA) and analyzed using the MiSeq platform™ (Illumina). Raw reads were aligned against hg19, and data sets were analyzed using a program developed in-house for genomic aberrations (i.e., mutations, deletions, and insertions) detection. Quantikine® ELISA Human GDF-15 immunoassay (R&D Systems, Inc., Minneapolis, MN, USA), employing the quantitative sandwich enzyme immunoassay technique, was used to determine serum MIC-1, also known as growth and differentiation factor-15 (GDF-15). […] In addition to descriptive statistics, the geometric mean and geometric coefficient of variation were used to describe the PK parameters. All analyses were conducted using SAS® software (version 9.4; SAS Institute Inc., Cary, NC, USA). The time courses of mean plasma milademetan concentrations on days 1 and 14 of cycle 1 (linear scale) in the QD 14/28-day schedule were used for pharmacokinetic analysis. The best response was measured as CR, CRh, CRi, or PR. For efficacy analysis, a waterfall plot of the best percent change from baseline blast count in bone marrow aspirate on the QD 14/28-day schedule was drawn to assess the blast count reduction. In addition, line plots of individual serum MIC-1 levels were drawn in the QD 14/28-day schedule for the pharmacodynamics analysis set."}}, "note": "“Also recorded” adds a separate entry of the source. Like-named read-outs stand apart in the source and are kept apart here."}
{"smiles": "CC1(C)CCC2(CC1)N[C@@H](C(=O)N[C@@H]1CC[C@@H](C(N)=O)OC1)[C@H](c1ccnc(Cl)c1F)[C@]21C(=O)Nc2cc(Cl)ccc21", "note": "[milademetan]", "values": [{"measurement": "AUCinf", "setting": "[1]; Day 1 of cycle 1, 90 mg/day, mean (SD), two patients excluded", "value": "13,700 (4,100) ng h/mL"}, {"measurement": "Mean accumulation ratios based on AUC24h", "setting": "[1]; Day 14, dose range tested (90-160 mg)", "value": "1.40–1.90"}, {"measurement": "Ctrough", "setting": "[1]; Day 14 of cycle 1, 90 mg/day, mean (SD)", "value": "422 (147) ng/mL"}, {"measurement": "Ctrough", "setting": "[1]; Day 14 of cycle 1, 120 mg/day, mean (SD)", "value": "635 (533) ng/mL"}, {"measurement": "Ctrough", "setting": "[1]; Day 14 of cycle 1, 160 mg/day, mean (SD)", "value": "769 (221) ng/mL"}, {"measurement": "Increase in Cmax and AUC with dose", "setting": "[1]; dose range tested, single and multiple dosing", "value": "increased linearly with milademetan dose; also recorded: linear and dose-proportional"}, {"measurement": "Cmax", "setting": "[1]; 90 mg/day, Day 1 of cycle 1, 90 mg/day, mean (SD)", "value": 653, "unit": "ng/mL"}, {"measurement": "AUC(0-t)", "setting": "[1]; 90 mg/day, Day 1 of cycle 1, 90 mg/day, mean (SD), two patients excluded, read-out: AUC24h", "value": 8640, "unit": "ng·h/mL"}, {"measurement": "AUC(0-t)", "setting": "[1]; 90 mg/day, Day 1 of cycle 1, 90 mg/day, mean (SD), read-out: AUC8h", "value": 3170, "unit": "ng·h/mL"}, {"measurement": "AUC(0-t)", "setting": "[1]; 90 mg/day, Day 1 of cycle 1, 90 mg/day, mean (SD), read-out: AUClast", "value": 8060, "unit": "ng·h/mL"}, {"measurement": "Tmax", "setting": "[1]; 90 mg/day, Day 1 of cycle 1, 90 mg/day, median (minimum, maximum), read-out: Tmax", "value": 4.45, "unit": "h"}, {"measurement": "Cmax", "setting": "[1]; 90 mg/day, Day 14 of cycle 1, 90 mg/day, mean (SD)", "value": 1090, "unit": "ng/mL"}, {"measurement": "AUC(0-t)", "setting": "[1]; 90 mg/day, Day 14 of cycle 1, 90 mg/day, mean (SD), read-out: AUC8h", "value": 6220, "unit": "ng·h/mL"}, {"measurement": "Tmax", "setting": "[1]; 90 mg/day, Day 14 of cycle 1, 90 mg/day, median (minimum, maximum), read-out: Tmax", "value": 3.02, "unit": "h"}, {"measurement": "Cmax", "setting": "[1]; 120 mg/day, Day 1 of cycle 1, 120 mg/day, mean (SD)", "value": 1010, "unit": "ng/mL"}, {"measurement": "AUC(0-t)", "setting": "[1]; 120 mg/day, Day 1 of cycle 1, 120 mg/day, mean (SD), one patient excluded, read-out: AUC24h", "value": 12100, "unit": "ng·h/mL"}, {"measurement": "AUC(0-t)", "setting": "[1]; 120 mg/day, Day 1 of cycle 1, 120 mg/day, mean (SD), read-out: AUC8h", "value": 4940, "unit": "ng·h/mL"}, {"measurement": "AUC(0-t)", "setting": "[1]; 120 mg/day, Day 1 of cycle 1, 120 mg/day, mean (SD), read-out: AUClast", "value": 11300, "unit": "ng·h/mL"}, {"measurement": "Tmax", "setting": "[1]; 120 mg/day, Day 1 of cycle 1, 120 mg/day, median (minimum, maximum), read-out: Tmax", "value": 3.13, "unit": "h"}, {"measurement": "Cmax", "setting": "[1]; 120 mg/day, Day 14 of cycle 1, 120 mg/day, mean (SD)", "value": 1680, "unit": "ng/mL"}, {"measurement": "AUC(0-t)", "setting": "[1]; 120 mg/day, Day 14 of cycle 1, 120 mg/day, mean (SD), read-out: AUC8h", "value": 10000, "unit": "ng·h/mL"}, {"measurement": "Tmax", "setting": "[1]; 120 mg/day, Day 14 of cycle 1, 120 mg/day, median (minimum, maximum), read-out: Tmax", "value": 2.98, "unit": "h"}, {"measurement": "Cmax", "setting": "[1]; 160 mg/day, Day 1 of cycle 1, 160 mg/day, mean (SD)", "value": 1380, "unit": "ng/mL"}, {"measurement": "AUC(0-t)", "setting": "[1]; 160 mg/day, Day 1 of cycle 1, 160 mg/day, mean (SD), two patients excluded, read-out: AUC24h", "value": 15000, "unit": "ng·h/mL"}, {"measurement": "AUC(0-t)", "setting": "[1]; 160 mg/day, Day 1 of cycle 1, 160 mg/day, mean (SD), read-out: AUC8h", "value": 6560, "unit": "ng·h/mL"}, {"measurement": "AUC(0-t)", "setting": "[1]; 160 mg/day, Day 1 of cycle 1, 160 mg/day, mean (SD), read-out: AUClast", "value": 14900, "unit": "ng·h/mL"}, {"measurement": "Tmax", "setting": "[1]; 160 mg/day, Day 1 of cycle 1, 160 mg/day, median (minimum, maximum), read-out: Tmax", "value": 2.54, "unit": "h"}, {"measurement": "Cmax", "setting": "[1]; 160 mg/day, Day 14 of cycle 1, 160 mg/day, mean (SD)", "value": 2710, "unit": "ng/mL"}, {"measurement": "AUC(0-t)", "setting": "[1]; 160 mg/day, Day 14 of cycle 1, 160 mg/day, mean (SD), read-out: AUC8h", "value": 15300, "unit": "ng·h/mL"}, {"measurement": "Tmax", "setting": "[1]; 160 mg/day, Day 14 of cycle 1, 160 mg/day, median (minimum, maximum), read-out: Tmax", "value": 3.03, "unit": "h"}, {"measurement": "half-life", "setting": "[1]; Day 1 of cycle 1, 90 mg/day, mean (SD), two patients excluded, read-out: t1/2 (converted)", "value": 15.9, "unit": "h"}, {"measurement": "AUC(0-inf)", "setting": "[1]; Day 1 of cycle 1, 120 mg/day, mean (SD), one patient excluded", "value": 18600, "unit": "ng·h/mL"}, {"measurement": "half-life", "setting": "[1]; Day 1 of cycle 1, 120 mg/day, mean (SD), one patient excluded, read-out: t1/2 (converted)", "value": 14.1, "unit": "h"}, {"measurement": "AUC(0-inf)", "setting": "[1]; Day 1 of cycle 1, 160 mg/day, mean (SD), two patients excluded", "value": 22700, "unit": "ng·h/mL"}, {"measurement": "half-life", "setting": "[1]; Day 1 of cycle 1, 160 mg/day, mean (SD), two patients excluded, read-out: t1/2 (converted)", "value": 14.6, "unit": "h"}, {"measurement": "half-life", "setting": "[1]; across doses, read-out: Mean half-life (converted)", "value": "~15", "unit": "h"}, {"measurement": "Tmax", "setting": "[1]; across doses, read-out: Median Tmax", "value": "3 to 4", "unit": "h"}, {"measurement": "Mean serum MIC-1 levels vs baseline", "setting": "[2]; all cohorts, after administration", "value": "increased from baseline in all cohorts"}, {"measurement": "Peak MIC-1 levels, 120- and 160-mg cohorts vs 90-mg cohort", "setting": "[2]; in vivo", "value": "tended to be higher"}, {"measurement": "Time of peak serum MIC-1 level", "setting": "[2]; most patients", "value": "day 8 or 14 of cycle 1"}]}
